From patent US20070190191A1, “Use of geraniol in antitumoral therapy” (priority 2003, published 2007) come the findings set out here.

Where two headings read alike, the source gives them in different places.

Series [1] concerns confluent Caco-2 cells. Nature of the series: Cell growth (sulforhodamine B), confluent Caco-2 cells. Type of series: cell-based, human. Particulars: for cell loss: confluent Caco-2, 8 days treatment, geraniol 400 μM (IC30), 5-FU 1 μM. The method, then:
(§1) In all experiments, cells were seeded at 6×10^5 cells on culture dishes (100 mm in diameter), or at 4500 cells/well in 96-well plates. Caco-2 and SW620 cells were grown in DMEM supplemented with 3% horse serum, 5 μg/ml transferrin, 5 ng/ml selenium, and 10 μg/ml insulin (TSI defined medium; Invitrogen, SARL, Cergy-Pontoise, France). Geraniol (Sigma-Aldrich, Saint Louis, Mo.) was dissolved in absolute ethanol, and 5-FU (Teva Pharmachemie B.V., Mijdrecht, The Netherlands) was diluted in PBS at a final concentration of 50 mg/ml. The compounds were added to the culture medium 24 h or 7 days after cell seeding (final concentration of ethanol, 0.1%).
In all experimental conditions, culture medium, geraniol, and 5-FU were replaced every 24 h. Cells were harvested after various times, washed three times with phosphate-buffered saline (PBS) (pH 7.2), and kept at −70° C. until assays were performed.
(§2) Cells were seeded in 96-well plates and incubated for different times. Cell growth was stopped by addition of 50 μl of trichloroacetic acid (50%, v/v), and the protein content of each well was determined by staining with sulforhodamine B (Skehan et al., 1990): Absorbance was determined at 490 nm.
The effects of increasing doses of 5-FU alone or in combination with geraniol were determined after treatment for 8 days. […] Geraniol and 5-FU were replaced every 24 h.
Statistical differences between control and geraniol-treated cells were evaluated using the Student's t test. Differences were considered to be significant for values of p<0.05.

Series [2] relates to Caco-2 cells. Nature of the series: Apoptosis: DNA fragmentation ladder and annexin V-FITC labeling. Particulars: exponentially growing and confluent Caco-2 cells, 24 h; 5-FU 5 μM, geraniol IC30 400 μM. Type of series: cell-based, human. The method, then: After trypsinization, cells were collected by centrifugation and stored at −80° C. Apoptotic DNA was separated from genomic DNA, using the Suicide Track DNA ladder kit (Oncogene Research Products, Cambridge, Mass.). DNA fragments were separated by electrophoresis and stained with ethidium bromide. Apoptosis was further tested by evaluating phosphatidylserine membrane externalization by measuring annexin V-conjugated fluorescein isothiocyanate (FITC) binding using an Annexin V-FITC kit (Medsystems Diagnostics GmbH, Vienna, Austria). Briefly, cells were washed in cold PBS without calcium and, for each sample, 5×10^5 cells were resuspended in 100 μl of reaction buffer (10 μl of binding buffer 10-fold concentrated, 10 μl of propidium iodide, 1 μl of annexin V-FITC, and 79 μl of deionized water. After incubation for 15 min in the dark at room temperature, each sample was diluted with binding buffer to obtain an appropriate final volume for flow cytometry.

For series [3], the system named is SW620 cells. Nature of the series: Cell growth (sulforhodamine B), growing SW620 cells. Conditions: Homo sapiens, SW-620, 192 h, 8 days treatment, in the combination geraniol at IC30, read-out: IC50 5-FU, SW620. Type of series: cell-based. As to the method: as §1, §2
(§3) The comparative effects of geraniol and 5-FU were studied on exponentially growing Caco-2 and SW620 cells. Cells were cultured as described in Example 1. […]
(§4) The effects of graded doses of 5-FU alone or in combination with geraniol were determined. […]

Series [4] deals with growing Caco-2 cells. Nature of the series: Cell growth (sulforhodamine B), exponentially growing Caco-2 cells. In kind it is cell-based, human. The method, then: as §1, §2, §3, §4
In series [5] the test system is Caco-2 cells. Nature of the series: Electron microscopy of Caco-2 cell morphological differentiation. Conditions: confluent Caco-2 cells (7 days after seeding) treated 4 days; geraniol 400 μM, 5-FU 5 μM. In kind it is cell-based, human. The method, then: Caco-2 and SW620 cells were obtained from the European Collection of Animal Cell Culture (CERDIC, Sophia Antipolis, France) and were cultured in 75-cm^2 Falcon flasks containing Dulbecco's modified Eagle's medium (DMEM) and 25 mM glucose supplemented with 10% heat-inactivated horse serum, 100 U/ml penicillin, and 100 μg/ml streptomycin. Cells were incubated at 37° C. in a humidified atmosphere of 5% CO2 and subcultured after trypsinization (0.5% trypsin/2.6 mM EDTA). They were used for up to 30 to 40 passages.
as §1
In all experimental conditions, culture medium, geraniol, and 5-FU were replaced every 24 h. […]

The test system of series [6] is human colonic tumors TC-118. Nature of the series: Growth of 5-FU-resistant human colonic tumors transplanted in nude mice. In kind it is in vivo, Swiss nu/nu mice. Conditions: day 14. The method, then:
The effect of geraniol and 5-FU were evaluated in vivo on the growth of 5-FU-resistant human colonic tumors ([…]) transplanted in Swiss nu/nu mice. TC 118 is the hepatic metastasis of a primary human colorectal tumor is used as xénogreffe. Fresh fragments of the tumor are implanted in the subcutaneous tissue of female Swiss nulnu mice of from 5 to 6 weeks. The appearance of the tumor is watched by a bi-weekly exam of mice and the time of appearance is registered. Tumors are detected by palpation as soon as they measure approximately 3×3 mm (that is approximately 15 mm^3). […] Tumors are measured with a calliper rule, 3 times a week, until the sacrifice of the animal. Two perpendicular diameters are measured and the volumes of tumors are calculated according to the following equation: V=A×B^2/2 where A represents the large diameter and B the small diameter. The relative tumoral volume (VTR) is calculated according to the formula: VTR=Volume at day D/Initial volume […] When these molecules were given in combination, they were injected simultaneously. A control group was treated with excipient (NaCl 0.9%). The mean value of the VTR was calculated for every group on every day corresponding to the measure of tumors. The curves of tumoral growth were obtained in every experimental group or for every individual tumor by reporting the values of the VTR as a function of time (expressed in days after the beginning of the treatment). The measures were individually recorded, allowing a follow-up of the tumoral growth. […] Mice not presenting tumors were sacrificed at the same time. The percentage of inhibition of the tumoral growth was calculated at day 14 for the various treatments, according to the formula: (VTR of treated mice/VTR of control mice)×100. Results

The test system of series [7] is Caco-2 cells. Nature of the series: Caco-2 cell growth with CPT-11 and geraniol. In kind it is cell-based. Conditions: Homo sapiens, 192 h, Caco-2, 8 days treatment. The method, then:
as §2
The effect of various doses of CPT-11 alone or in combination with geraniol was determined after 8 days of treatment of Caco-2 cells. Concentrations of CPT-11 of from 0.2 to 0.8 μM were tested and geraniol was used at a concentration which induces a 10% inhibition of the cell growth (IC10).

Series [8] relates to Caco-2 cells. Nature of the series: Brush-border membrane hydrolase assays (functional differentiation). In kind it is cell-based. Particulars: Homo sapiens, 168 h, 400 μM geraniol, Caco-2 at confluency (7 days after seeding), brush-border membranes. The method, then:
Brush-border membranes were isolated as described by Schmitz et al. (1973). Sucrase activity was determined according to Messer and […] (1966) and lactase activity according to Koldovsky et al. (1969). Alkaline phosphatase activity was assayed by the method of Garen and […] (1960), and N-aminopeptidase activity was determined according to Maroux et al. (1973).

For series [9], the system named is Caco-2 cells. Nature of the series: Cytotoxicity by LDH release into the culture medium. In kind it is cell-based, human. Particulars: confluent Caco-2 (7 days after seeding), 4 days treatment, geraniol alone 400 μM. On the technique in general: LDH in the medium is a marker of cell lysis.
Description: To determine cytotoxicity, cells (4×10^5/well) were seeded on culture dishes (100 nm diameter) and incubated in DMEM culture medium supplemented with 3% FCS. On the 7th day after seeding, cells were incubated with 5-FU (5 μM) alone or together with geraniol (IC30: 400 μM) and 5-FU for 1, 2, 3, and 4 days. Then, cytotoxicity was assessed by determining the release of lactate dehydrogenase (LDH) (Skehan et al., 1990) into the culture medium using the Cyto Tox R nonradioactive cytotoxicity assay kit (Promega, Madison, Wis.).

As a reminder, the IC50 is the concentration needed to halve the response being measured. For the compound `O=c1[nH]cc(F)c(=O)[nH]1` [5-FU, 5-fluorouracil], the IC50 in series [1] (Homo sapiens, Caco-2, 192 h, 8 days treatment, in the combination geraniol at its IC30 (400 μM), read-out: IC50 5-FU, Caco-2 Confluent) was 25 µM; in series [3], 2 µM; in series [4] (Homo sapiens, Caco-2, 8 days treatment from 24 h after seeding, in the combination geraniol at its IC30 (200 μM), read-out: IC50 5-FU, Caco-2 Growing), 0.4 µM. In [1], the cell loss is on record as 25%. The “annexin V labeling (flow cytometry)” value in series [2] is recorded as “absence of annexin V labeling”. Also, the “apoptotic DNA fragmentation ladders” value in series [2] was “did not exhibit apoptotic DNA fragmentation ladders”. Further, the “brush-border microvilli (transmission electron microscopy)” value in series [5] is listed as “did not modify brush-border membranes”. Also, the “inhibition of the tumoral growth” value was “no effect” in [6] (5-FU alone 20 mg/kg/day i.p. for 5 days) and 30% in series [6] (5-FU alone 40 mg/kg/day i.p. for 5 days).

In the case of `CCc1c2c(nc3ccc(OC(=O)N4CCC(N5CCCCC5)CC4)cc13)-c1cc3c(c(=O)n1C2)COC(=O)[C@]3(O)CC` [CPT-11, irinotecan, reference compound], the IC50 in [7] (in the combination geraniol at IC10, read-out: IC50 CPT-11) stood at 0.7 µM.

For orientation: inhibition means how much of the control response was suppressed. Regarding `CC(C)=CCC/C(C)=C/CO` [geraniol], the IC30 of geraniol in series [1] (Caco-2 cells at confluency) was found to be 400 µM; in series [4] (growing Caco-2 cells) it was 200 µM. For the same compound, the cell loss in series [1] is recorded as 30%. Further, the IC50 in series [7] (in the combination CPT-11 at IC10, read-out: IC50 Geraniol) stood at 200 ± 0.03 µM. Further, the inhibition at 400 µM in series [8] (read-out: inhibition of the increase in alkaline phosphatase activity) is approximately 50%; in series [8] (read-out: inhibition of the increase in aminopeptidase activity), approximately 50%; in [8] (read-out: inhibition of the increase of lactase activity), approximately 70%; in series [8] (read-out: inhibition of the increase of sucrase activity), approximately 90%. For the same compound, the “cytotoxic effect (LDH release)” value in [9] is given as “no cytotoxic effect”. Moreover, in [5], the “brush-border microvilli (transmission electron microscopy)” value was “microvilli were scarce, and they were shorter”. The “inhibition of the tumoral growth” value in series [6] (geraniol alone 150 mg/kg/day i.p. for 5 days) stood at 26%.
